Data from paper PMC10728220, “Novel 3-(pyrazol-4-yl)-2-(1H-indole-3-carbonyl)acrylonitrile derivatives induce intrinsic and extrinsic apoptotic death mediated P53 in HCT116 colon carcinoma” (Scientific Reports, 2023).
Values after ≈ are worked out from the molar mass of the structure shown. “Also recorded” adds a separate entry of the source.

Legend:
[1] = system: normal human skin melanocyte cell line (HFB4); assay: Cytotoxic MTT assay, normal HFB4 cells; type: cell-based; conditions: 48 h treatment
Experimental: MTT protocol was performed to study the viability of cells after treatment with the tested compounds. The studied cell lines (A549 and HCT116) were cultured and grown in RPMI‐1640 media, while HFB4 cells were reserved in DMEM‐F12 media. Both media were supplemented with 10% FBS, 1% L‐glutamine, and 1% antibiotic–antimycotic mixture. The cell lines were grown at conditions of 37 °C and 5% CO2. 10 × 10^3 of A549, and HCT116 cells and the same count of normal melanocytes (HFB4) were cultured in a 96‐well plate. The selected cultured cells were kept at 37°C and 5% CO2 overnight. Then, the medium was discarded after 24 h of incubation, and 100 µL from different concentrations of the studied compounds dissolved in fresh medium without serum, with final concentrations of 100, 50, 25, 12.5, 6.25, 3.125, 1.56, and 0.78 µg/mL was added. The treated cells were then incubated for 48 h. After that, 50 µL of MTT was added into each well for 4 h for the formazan crystals to be formed. Finally, 200 µl of 10% sodium dodecyl sulphate (SDS) was added to each well, and plates were kept at room temperature overnight to allow the reaction to be stopped. The optical density at 575 nm was read using a microplate multi-well reader, and the percentage of cell viability was calculated. The dose–response curve was drawn to calculate the IC50 values for each compound using the prism GraphPad 5 program, [84]. 5 Fluorouracil, a commercial anticancer drug was used as a reference drug (positive control). Negative untreated cell control was used in this assay.

HCT116 cells [2] = assay: DNA fragmentation, agarose gel electrophoresis; type: cell-based, human; conditions: HCT116, 6.76 µg/mL, 48 h, 2% agarose gel
Experimental: Both control and treated cells were incubated for 48h. Then cells of both two samples were harvested for DNA fragmentation measurements using a SIGMA DNA fragmentation imaging kit with catalogue number 06432344001. To verify the validity of the DNA of both control and cells treated with 6.76 µg/mL of chalcone 7f, we carried out the loading of all samples on 2% agarose gel containing 1 µg/mL ethidium bromide and visualized by ultraviolet transillumination.
The DNA gel electrophoresis laddering assay in the HCT116 cell line was performed according to the instructions of Yawata[87] with some modifications. Briefly, after 48 h of exposure of the HCT116 cancer cell line to compound 7f in Petri dishes (60 × 15 mm, Greiner), the cells were suspended in 1 ml of medium and then centrifuged at 900 rpm for 10 min. […] About 1 × 10^6 cells of HCT116 were treated with the IC50 value of compound 7f. Then, the treated cells were collected via trypsinization and washed with Dulbecco’s Phosphate Buffered Saline. Afterwards, the cells were treated with the lysis buffer (5 mM ethylenediaminetetraacetic acid (EDTA), 0.5% Triton X-100, 10 mM Tris (pH 7.4), and 150 mM NaCl) for 35 min on ice. […] At last, the fragmented DNA percentage was detected by performing gel electrophoresis using 2% agarose gel containing 0.1 μg/ml ethidium bromide (Supplementary File 1).

Human caspase-3 = assay: ELISA caspase 3 production in HCT116; type: cell-based; conditions: HCT116, 7f at its IC50 value
Experimental: Apoptosis is known and identified by specific characterizations in which the activation of caspases plays an important role. In apoptotic pathways, mechanisms of (activation/inactivation) of these proteins are not fully understood. The significance of understanding the mechanistic machinery that controls programmed cell death, being initiated by various chemotherapeutic agents is very critical and attracts the attention of researchers in this area. In this assay, cells were incubated in the absence or presence of 7f with varying concentrations (39, 78, 156, 313, 625, 1250, and 2500 ng/ml), inducing a concentration-dependent increase in caspase3 production in HCT116. […] A concentration of 7f was used at its IC50 value and compared directly to the control. […] However, there was only 103.5 pg/ml induced by control cells. It was interesting to note that chalcone 7f stimulated the production of caspase 3 protein in HCT116 cells 4.8-fold compared to control as outlined in Fig. 7.
The quantitative measurements of Human caspases-3, -8, and -9 concentrations in HCT116 cell culture lysates were performed using ELISA assay. […] All readings were measured immediately at a wavelength of 450 nm. From the readings of the standards, a standard curve was plotted using curve fitting software. Then, the concentrations for unknown samples and controls were measured from the standard curve.

HCT116 cells [3] = assay: Flow cytometric analysis of cell cycle; type: cell-based, human; conditions: HCT116, 6.76 µg/mL, 48 h
Experimental: Chalcone 7f was selected for more investigations, in attempts to find its molecular action on cancer cells. It illustrated high and very interesting cytotoxicity toward the tested colon cancer cell line (HCT116) as mentioned in the above MTT assay data (Table 1). A flow cytometric report was utilized in this recent paper to investigate the effect of our novel acrylonitrile compound 7f on the cell cycle, HCT116 cells were treated with compound 7f at a dose of (6.76 µg/mL) for 48 h and subjected to flow cytometric analysis.
In this study, non-treated HCT116 cells were used as a negative control. After the incubation period of 48 h, HCT116 treated cells were centrifuged at 1,200 rpm at 4 °C for 10 min. After disposing of the supernatant, the cell pellet was suspended in phosphate-buffered saline (PBS) and then centrifuged at 1200 rpm for 10 min. 70% cold ethanol was added overnight to allow the fixation of the cell pellet. After the step of centrifugation, the propidium iodide (PI) mixture was added to the cell pellet for 30 min at room temperature in the darkness. Subsequently, cells were subjected to Epics XL-MCL flow cytometer (BeckmanCoulter, Miami, FL) for analysis of DNA content. The percentage of cells in different phases of the cell cycle was analyzed by Multicycle software (Phoenix Flow Systems, San Diego, CA).

N#C/C(=C\c1cn(-c2ccccc2)nc1-c1ccc([N+](=O)[O-])cc1)C(=O)c1c[nH]c2ccccc12 [Compound 7f, (E)-2-(1H-Indole-3-carbonyl)-3-(3-(4-nitrophenyl)-1-phenyl-1H-pyrazol-4-yl)acrylonitrile]
IC50 [1]: 56.7 µg/mL (≈ 123 µM) | effect on genomic DNA (DNA fragmentation) (HCT116 cells [2]): completely deteriorated the genomic DNA; also recorded: completely degraded the genomic DNA | caspase 3 production, fold compared to control (Human caspase-3): 4.8 fold | caspase 3 protein production (Human caspase-3; control cells 103.5 pg/ml): 504.1 pg/mL | DNA content in G2/M phase (%DIP G2/M) (HCT116 cells [3]; control 13.68%): 2.55% | cells in S phase (%DIP S) (HCT116 cells [3]; control 41.04%): 46.12% | cell accumulation in G1 phase (%DIP G1) (HCT116 cells [3]; control 45.28%): 51.33%
